Data as given in US20130018062A1, “Pain therapy with metabolism blocked antifolates” (priority 2011, published 2013).
Like-named read-outs stand apart in the source and are kept apart here.

Legend:
SF 539 (CNS Cancer) = assay: Growth inhibition of human tumor cells in culture (NCI); assay type: cell-based; settings: logarithmic value
Excerpt: (§1) The preceding data collected at the National Cancer Institute summarize the ability of M-Trex to inhibit 50% of the growth of selected tumor cells in culture. The values are expressed as Log10 GI50 values all of which are lower than 10^−8M. In the same table a comparison is made of the respective values of TGI (Total Growth Inhibition) for M-Trex and MTX. […] In addition, the Log10 GI50 values of M-Trex was lower than −8.00 for the following cell lines: NSCLC, A549/ATCC and NCI H23; Colon Cancer, HCT 116, HCT 29 and SW 620; CNS Cancer, SF 268; Melanoma M 14 and UACC 62; Ovarian Cancer, OVCAR-8; Renal Cancer, ACHN, CAKI-1, SN 12C, and UO 31; Prostate Cancer, PC 3 and Breast cancer, MDA-MB-435 and MDA-N. The MG_MID value of MTX for all 49 human tumor cell lines evaluated at NCI-DTP program was −7.05. […] The tumors and sarcomas are solid while leukemia and lymphoma are liquid tumors.

[1] = system: MDA-MB-435 (Breast cancer); assay: as above; assay type: cell-based
Excerpt: as §1

CCRF-CEM (Leukemia) = assay: as above; assay type: cell-based
Excerpt: as §1

RPMI 8226 (Leukemia) = assay: as above; assay type: cell-based; settings: logarithmic value
Excerpt: as §1

OVCAR-8 (Ovarian Cancer) = assay: as above; assay type: cell-based
Excerpt: as §1

MCF-7 (Breast Cancer) = assay: as above; assay type: cell-based; settings: logarithmic value
Excerpt: as §1

ACHN (Renal Cancer) = assay: as above; assay type: cell-based
Excerpt: as §1

HCT 116 (Colon Cancer) = assay: as above; assay type: cell-based
Excerpt: as §1

[2] = Toxicity (maximum tolerated dose, weight loss) in nude mice bearing HCT-8 xenograft; assay type: in vivo; settings: i.v. push daily × 5 in nude mice
Allergic Rabbits = settings: allergen induced; cited from earlier work
C-Reactive Protein (CRP) [3] = system: C-Reactive Protein (CRP); set-up: unit not given here; settings: RA patients on therapy with M-Trex, cited from earlier work
[4] = system: patients with Rheumatoid Arthritis; assay: Pain assessment by VAS scale in patients treated with M-Trex (Example-1); assay type: in vivo, human
Excerpt: Of special importance was the novel observation of the ability of M-Trex to substantially reduce Pain in human subjects who were suffering from inflammation caused by autoimmune response. [O. Castaneda and M. G. Nair. Controlled trial of methotrexate versus CH-1504 in the treatment of Rheumatoid Arthritis. The J. Rheumatology. 33, 862-64, 2006.] […] Another unique observation with M-Trex was its ability to shrink human tumor xenografts in immuno-compromised mice. The ability of metabolism blocked antifolate M-Trex to shrink rapidly proliferating human tissues is representative and results in Pain reduction secondary to such proliferation. [EXAMPLE-1]** ** Pain assessment was made using the VAS scale every four weeks. Patients were treated with a daily oral dose of 7.5 mg/day of M-Trex during the duration of measurements. […] Pain as assessed by VAS was reduced from a scale of 7.2 to 1.8.
There are three general accepted methods for the evaluation of Pain in patients suffering from a number of diseases. They are Visual Analog Scale (VAS); Numeric rating Scale (NRS) and Verbal Categorical Rating Scale […]. Of these three assessment methods VAS is considered to be most reliable in a majority of cases to evaluate and quantify the magnitude of the perception of Pain. […]

C-Reactive Protein (CRP) [5] = assay: Plasma CRP levels of patients on therapy with M-Trex for Rheumatoid Arthritis (Example-2); assay type: in vivo, human; settings: arthritic patients taking M-Trex, clinical study by Castaneda and Nair
Excerpt: Coronary Heart Disease (CHD), Cardio-vascular diseases (CVD) and Stroke are of the same generic species by virtue of Inflammation being the common underlying cause of their occurrence. In fact an article by the American Heart Association entitled “Inflammation, Heart Disease and Stroke. The role of C-Reactive Protein” stressed that markers of Inflammation are more accurate and reliable predictive factors than total cholesterol levels in humans. [www.americanheart.org/presenter.jhtml?presenter=4648]. The most accurate predictive factor for the incidence of CHD, CVD and stroke is elevated levels of C-Reactive Protein (CRP).

[6] = Laboratory values (toxicity) of Rheumatoid Arthritis patients on M-Trex; assay type: in vivo, human; settings: M-Trex 7.5 mg per day; for CREATININE / GLUCOSE / SGOT / ALK. PHOSPHAT / SGTP / HEMOGLOB: RA patients; for ALK. PHOSPHAT / SGTP: in U/L (unit assumed); for HEMOGLOB: in g/dL (unit assumed)

C=C(CC(NC(=O)c1ccc(CCc2ccc3nc(N)nc(N)c3c2)cc1)C(=O)O)C(=O)O (stereo not drawn) [M-Trex, 4′-methylene-5,8-10-trideazaaminopterin]
TGI (Total Growth Inhibition) (SF 539 (CNS Cancer)): −6.3
Log10 GI50 [1]: lower than −8.00
TGI (Total Growth Inhibition) (CCRF-CEM (Leukemia); logarithmic value): <−8.00
Log10 GI50 (CCRF-CEM (Leukemia); value is Log10 of GI50): <−8.00 M
TGI (Total Growth Inhibition) (RPMI 8226 (Leukemia)): −7.44
Log10 GI50 (OVCAR-8 (Ovarian Cancer)): lower than −8.00
TGI (Total Growth Inhibition) (MCF-7 (Breast Cancer)): −6.32
Log10 GI50 (ACHN (Renal Cancer)): lower than −8.00
Log10 GI50 (HCT 116 (Colon Cancer)): lower than −8.00
Maximum Tolerated dose [2]: M-Trex (4.0 mg/kg/day)
Asthmatic Response Early (Allergic Rabbits): 52
Asthmatic Response Late (Allergic Rabbits): 58
BHR (Bronchial Hyper-Responsiveness) (Allergic Rabbits): 47
Plasma CRP Levels (C-Reactive Protein (CRP) [3]; visit at 4 weeks): 22.1
Plasma CRP Levels (C-Reactive Protein (CRP) [3]; visit at 8 weeks): 20.7
Plasma CRP Levels (C-Reactive Protein (CRP) [3]; visit at 12 weeks): 17.7
Plasma CRP Levels (C-Reactive Protein (CRP) [3]; visit at 16 weeks): 13.6
Pain as assessed by VAS ([4]; starting value from which pain was reduced, Rheumatoid Arthritis patients): 7.2
Pain as assessed by VAS ([4]; value reached on daily oral dose of 7.5 mg/day of M-Trex, assessed every four weeks): 1.8
Change of CRP levels (in words) (C-Reactive Protein (CRP) [5]): significant and consistent reduction
CREATININE ([6]; VISIT 2): 0.79 mg/dL
GLUCOSE ([6]; VISIT 2): 83.8 mg/dL
SGOT ([6]; VISIT 2): 14.6 U/L
ALK. PHOSPHAT ([6]; VISIT 2): 107.75
SGTP ([6]; VISIT 2): 17.75
HEMOGLOB ([6]; VISIT 2): 11.77
CREATININE ([6]; VISIT 3): 0.95 mg/dL
GLUCOSE ([6]; VISIT 3): 95 mg/dL
SGOT ([6]; VISIT 3): 16 U/L
ALK. PHOSPHAT ([6]; VISIT 3): 86
SGTP ([6]; VISIT 3): 17
HEMOGLOB ([6]; VISIT 3): 12.43
CREATININE ([6]; VISIT 4): 0.85 mg/dL
GLUCOSE ([6]; VISIT 4): 87.5 mg/dL
SGOT ([6]; VISIT 4): 16 U/L
ALK. PHOSPHAT ([6]; VISIT 4): 89.3
SGTP ([6]; VISIT 4): 25
HEMOGLOB ([6]; VISIT 4): 12.18
CREATININE ([6]; VISIT 5): 0.85 mg/dL
GLUCOSE ([6]; VISIT 5): 88.1 mg/dL
SGOT ([6]; VISIT 5): 17.3 U/L
ALK. PHOSPHAT ([6]; VISIT 5): 87.1
SGTP ([6]; VISIT 5): 20
HEMOGLOB ([6]; VISIT 5): 12.26
CREATININE ([6]; VISIT 6): 0.92 mg/dL
GLUCOSE ([6]; VISIT 6): 92.4 mg/dL
SGOT ([6]; VISIT 6): 14.9 U/L
ALK. PHOSPHAT ([6]; VISIT 6): 85.42
SGTP ([6]; VISIT 6): 18.21
HEMOGLOB ([6]; VISIT 6): 12.56
CREATININE ([6]; VISIT 7): 0.84 mg/dL
GLUCOSE ([6]; VISIT 7): 90.3 mg/dL
SGOT ([6]; VISIT 7): 15.2 U/L
ALK. PHOSPHAT ([6]; VISIT 7): 86.5
SGTP ([6]; VISIT 7): 18
HEMOGLOB ([6]; VISIT 7): 12.48
Toxicity according to laboratory values ([6]; patients with Rheumatoid Arthritis): not associated with any measurable toxicity
